“Also recorded” adds a separate entry of the source.
Tested on: cerebral vein of Galen from NonP rats
Test: BBB permeability (hydraulic conductivity, Lp) in isolated cerebral veins perfused with human plasma
Design: species or system rat
Experimental: BBB permeability measurements. The first set of experiments was performed to determine the effects of circulating factors in plasma from EPE and LPE women on the BBB permeability compared to NP women and NonP women. We measured Lp, the critical transport parameter that relates water flux to hydrostatic pressure, in isolated cerebral veins from nonpregnant female rats after perfusing with plasma from the 4 groups of women, as described previously (52). This method of measuring BBB permeability was specifically developed to have a direct measure of water permeability and has been successfully used in several previous studies (13, 52-54).
The vein of Galen was used for all permeability experiments as representation of the BBB because this vein has BBB properties and is where BBB disruption occurs first during acute hypertension (55). […] After this incubation period with plasma, intravascular pressure was increased to 25±0.1 mmHg and the drop in pressure due to transvascular filtration of water out of the vessel in response to hydrostatic pressure was measured for 40 minutes. […] After flux was determined, transvascular filtration per surface area (Jv/S) and Lp were calculated by normalizing flux to the surface area and oncotic pressure of the plasma perfusate that was determined by a commercially available oncometer. […]

## C[n+]1ccc(-c2c3nc(c(-c4cc[n+](C)cc4)c4ccc([n-]4)c(-c4cc[n+](C)cc4)c4nc(c(-c5cc[n+](C)cc5)c5ccc2[n-]5)C=C4)C=C3)cc1.[Cl-].[Cl-].[Cl-].[Cl-].[Cl-].[Fe+3] [FeTMPyP, Fe(III)tetrakis (1-methyl-4-pyridyl) porphyrin pentachlorideporphyrin pentachloride]
EPE plasma plus 50 μM FeTMPyP
  effect on BBB permeability (Lp at 36 minutes) induced by plasma from EPE women: significantly inhibited BBB permeability; also recorded: inhibited the BBB permeability induced by plasma from EPE women
NonP plasma plus 3.5 μg/ml oxLDL and 50 μM FeTMPyP
  effect on BBB permeability (Lp) induced by exogenous oxLDL: inhibited the BBB permeability induced by 3.5 μg/ml exogenous oxLDL
